Source: US20230301300A1, “HERBICIDAL COMPOSITIONS” (SYNGENTA CROP PROTECTION AG, priority 2020, published 2023)

Experiments:
Experiment in all cases: B2 Post-Emergence Efficacy - Test 2
Format in all cases: in vivo
Lolium perenne (LOLPE) = details: 15 days after application, 0-100 scale
In short: (§1)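 The compound, dissolved in IF50 and made up as an aqueous spray with 0.2% v/v Genapol X080, is applied post-emergence to plants raised for 12 days from seed. Injury is assessed 15 days afterwards, 0 for undamaged through 100 for fully killed.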

Sorghum bicolour (SORVU) = details: 15 days after application, 0=no damage, 100=total kill
In short: as §1

Orysa sativa (ORYSA) = details: 15 days after application; for Herbicidal activity ORYSA: 0-100 scale; for Herbicidal activity on a 0-100 scale, ORYSA: 0=no damage, 100=total kill
In short: as §1

[1] = test system: Echinochloa crus galli (ECHCG); details: 15 days after application, 0=no damage, 100=total kill
In short: as §1

[2] = test system: Euphorbia hetrophylla (EPHHL); details: 15 days after application, 0-100 scale
In short: as §1

Beta vulgaris (BEAVA) = details: 15 days after application, 0-100 scale
In short: as §1

[3] = test system: Digitaria sanguinalis (DIGSA); details: 15 days after application, 0=no damage, 100=total kill
In short: as §1

[4] = test system: Abutilon theophrasti (ABUTH); details: 15 days after application, 0-100 scale
In short: as §1

[5] = test system: Alopecurus myosuroides (ALOMY); details: 15 days after application, 0-100 scale
In short: as §1

[6] = test system: Ipomoea hederacea (IPOHE); details: 15 days after application, 0-100 scale
In short: as §1

Poa annua (POAAN) = details: 15 days after application, 0-100 scale
In short: as §1

[7] = test system: Xanthium strumarium (XANST); details: 15 days after application, 0-100 scale
In short: as §1

Veronica persica (VERPE) = details: 15 days after application, 0-100 scale
In short: as §1

Galium aparine (GALAP) = details: 15 days after application, 0-100 scale
In short: as §1

Bidens pilosa (BIDPI) = details: 15 days after application, 0-100 scale
In short: as §1

[8] = test system: Panicum miliaceum (PANMI); details: 15 days after application, 0=no damage, 100=total kill
In short: as §1

Sida spinosa (SIDSP) = details: 15 days after application, 0-100 scale
In short: as §1

Sinapis arvensis (SINAR) = details: 15 days after application, 0-100 scale
In short: as §1

Cc1nn(C)c(=O)c(-c2c(F)ccc(Cl)c2CCc2ccc(F)cc2)c1O [Compound 1.048, 4-[3-chloro-6-fluoro-2-[2-(4-fluorophenyl)ethyl]phenyl]-5-hydroxy-2,6-dimethyl-pyridazin-3-one]
Herbicidal activity LOLPE (Lolium perenne (LOLPE); 15 g/Ha): 20 | Herbicidal activity LOLPE (Lolium perenne (LOLPE); 30 g/Ha): 40 | Herbicidal activity LOLPE (Lolium perenne (LOLPE); 60 g/Ha): 90 | Herbicidal activity LOLPE (Lolium perenne (LOLPE); 125 g/Ha): 90 | Herbicidal activity LOLPE (Lolium perenne (LOLPE); 250 g/Ha): 90 | Herbicidal activity LOLPE (Lolium perenne (LOLPE); 500 g/Ha): 90 | Herbicidal activity on a 0-100 scale, SORVU (Sorghum bicolour (SORVU); 15 g/Ha): 0 | Herbicidal activity on a 0-100 scale, SORVU (Sorghum bicolour (SORVU); 30 g/Ha): 30 | Herbicidal activity on a 0-100 scale, SORVU (Sorghum bicolour (SORVU); 60 g/Ha): 70 | Herbicidal activity on a 0-100 scale, SORVU (Sorghum bicolour (SORVU); 125 g/Ha): 70 | Herbicidal activity on a 0-100 scale, SORVU (Sorghum bicolour (SORVU); 250 g/Ha): 80 | Herbicidal activity on a 0-100 scale, SORVU (Sorghum bicolour (SORVU); 500 g/Ha): 90 | Herbicidal activity ORYSA (Orysa sativa (ORYSA); 15 g/Ha): 0 | Herbicidal activity on a 0-100 scale, ORYSA (Orysa sativa (ORYSA); 15 g/Ha): 0 | Herbicidal activity ORYSA (Orysa sativa (ORYSA); 30 g/Ha): 0 | Herbicidal activity on a 0-100 scale, ORYSA (Orysa sativa (ORYSA); 30 g/Ha): 0 | Herbicidal activity ORYSA (Orysa sativa (ORYSA); 60 g/Ha): 0 | Herbicidal activity on a 0-100 scale, ORYSA (Orysa sativa (ORYSA); 60 g/Ha): 0 | Herbicidal activity ORYSA (Orysa sativa (ORYSA); 125 g/Ha): 0 | Herbicidal activity on a 0-100 scale, ORYSA (Orysa sativa (ORYSA); 125 g/Ha): 0 | Herbicidal activity ORYSA (Orysa sativa (ORYSA); 250 g/Ha): 10 | Herbicidal activity on a 0-100 scale, ORYSA (Orysa sativa (ORYSA); 250 g/Ha): 10 | Herbicidal activity ORYSA (Orysa sativa (ORYSA); 500 g/Ha): 30 | Herbicidal activity on a 0-100 scale, ORYSA (Orysa sativa (ORYSA); 500 g/Ha): 30 | Herbicidal activity on a 0-100 scale, ECHCG ([1]; 15 g/Ha): 60 | Herbicidal activity on a 0-100 scale, ECHCG ([1]; 30 g/Ha): 80 | Herbicidal activity on a 0-100 scale, ECHCG ([1]; 60 g/Ha): 80 | Herbicidal activity on a 0-100 scale, ECHCG ([1]; 125 g/Ha): 90 | Herbicidal activity on a 0-100 scale, ECHCG ([1]; 250 g/Ha): 90 | Herbicidal activity on a 0-100 scale, ECHCG ([1]; 500 g/Ha): 100 | Herbicidal activity EPHHL ([2]; 15 g/Ha): 50 | Herbicidal activity EPHHL ([2]; 30 g/Ha): 70 | Herbicidal activity EPHHL ([2]; 60 g/Ha): 90 | Herbicidal activity EPHHL ([2]; 125 g/Ha): 90 | Herbicidal activity EPHHL ([2]; 250 g/Ha): 100 | Herbicidal activity EPHHL ([2]; 500 g/Ha): 100 | Herbicidal activity BEAVA (Beta vulgaris (BEAVA); 15 g/Ha): 70 | Herbicidal activity BEAVA (Beta vulgaris (BEAVA); 30 g/Ha): 80 | Herbicidal activity BEAVA (Beta vulgaris (BEAVA); 60 g/Ha): 80 | Herbicidal activity BEAVA (Beta vulgaris (BEAVA); 125 g/Ha): 90 | Herbicidal activity BEAVA (Beta vulgaris (BEAVA); 250 g/Ha): 90 | Herbicidal activity BEAVA (Beta vulgaris (BEAVA); 500 g/Ha): 90 | Herbicidal activity on a 0-100 scale, DIGSA ([3]; 15 g/Ha): 0 | Herbicidal activity on a 0-100 scale, DIGSA ([3]; 30 g/Ha): 10 | Herbicidal activity on a 0-100 scale, DIGSA ([3]; 60 g/Ha): 20 | Herbicidal activity on a 0-100 scale, DIGSA ([3]; 125 g/Ha): 20 | Herbicidal activity on a 0-100 scale, DIGSA ([3]; 250 g/Ha): 50 | Herbicidal activity on a 0-100 scale, DIGSA ([3]; 500 g/Ha): 70 | Herbicidal activity ABUTH ([4]; 15 g/Ha): 60 | Herbicidal activity ABUTH ([4]; 30 g/Ha): 80 | Herbicidal activity ABUTH ([4]; 60 g/Ha): 90 | Herbicidal activity ABUTH ([4]; 125 g/Ha): 90 | Herbicidal activity ABUTH ([4]; 250 g/Ha): 90 | Herbicidal activity ABUTH ([4]; 500 g/Ha): 100 | Herbicidal activity ALOMY ([5]; 15 g/Ha): 20 | Herbicidal activity ALOMY ([5]; 30 g/Ha): 30 | Herbicidal activity ALOMY ([5]; 60 g/Ha): 70 | Herbicidal activity ALOMY ([5]; 125 g/Ha): 80 | Herbicidal activity ALOMY ([5]; 250 g/Ha): 80 | Herbicidal activity ALOMY ([5]; 500 g/Ha): 90 | Herbicidal activity IPOHE ([6]; 15 g/Ha): 70 | Herbicidal activity IPOHE ([6]; 30 g/Ha): 80 | Herbicidal activity IPOHE ([6]; 60 g/Ha): 100 | Herbicidal activity IPOHE ([6]; 125 g/Ha): 100 | Herbicidal activity IPOHE ([6]; 250 g/Ha): 100 | Herbicidal activity IPOHE ([6]; 500 g/Ha): 100 | Herbicidal activity POAAN (Poa annua (POAAN); 15 g/Ha): 30 | Herbicidal activity POAAN (Poa annua (POAAN); 30 g/Ha): 30 | Herbicidal activity POAAN (Poa annua (POAAN); 60 g/Ha): 80 | Herbicidal activity POAAN (Poa annua (POAAN); 125 g/Ha): 80 | Herbicidal activity POAAN (Poa annua (POAAN); 250 g/Ha): 90 | Herbicidal activity POAAN (Poa annua (POAAN); 500 g/Ha): 90 | Herbicidal activity XANST ([7]; 60 g/Ha): 90 | Herbicidal activity XANST ([7]; 125 g/Ha): 90 | Herbicidal activity XANST ([7]; 250 g/Ha): 90 | Herbicidal activity XANST ([7]; 500 g/Ha): 100 | Herbicidal activity VERPE (Veronica persica (VERPE); 15 g/Ha): 60 | Herbicidal activity VERPE (Veronica persica (VERPE); 30 g/Ha): 80 | Herbicidal activity VERPE (Veronica persica (VERPE); 60 g/Ha): 90 | Herbicidal activity VERPE (Veronica persica (VERPE); 125 g/Ha): 80 | Herbicidal activity VERPE (Veronica persica (VERPE); 250 g/Ha): 100 | Herbicidal activity VERPE (Veronica persica (VERPE); 500 g/Ha): 100 | Herbicidal activity GALAP (Galium aparine (GALAP); 15 g/Ha): 20 | Herbicidal activity GALAP (Galium aparine (GALAP); 30 g/Ha): 30 | Herbicidal activity GALAP (Galium aparine (GALAP); 60 g/Ha): 50 | Herbicidal activity GALAP (Galium aparine (GALAP); 125 g/Ha): 60 | Herbicidal activity GALAP (Galium aparine (GALAP); 250 g/Ha): 60 | Herbicidal activity GALAP (Galium aparine (GALAP); 500 g/Ha): 80 | Herbicidal activity BIDPI (Bidens pilosa (BIDPI); 15 g/Ha): 70 | Herbicidal activity BIDPI (Bidens pilosa (BIDPI); 30 g/Ha): 70 | Herbicidal activity BIDPI (Bidens pilosa (BIDPI); 60 g/Ha): 70 | Herbicidal activity BIDPI (Bidens pilosa (BIDPI); 125 g/Ha): 70 | Herbicidal activity BIDPI (Bidens pilosa (BIDPI); 250 g/Ha): 100 | Herbicidal activity BIDPI (Bidens pilosa (BIDPI); 500 g/Ha): 100 | Herbicidal activity on a 0-100 scale, PANMI ([8]; 15 g/Ha): 0 | Herbicidal activity on a 0-100 scale, PANMI ([8]; 30 g/Ha): 20 | Herbicidal activity on a 0-100 scale, PANMI ([8]; 60 g/Ha): 30 | Herbicidal activity on a 0-100 scale, PANMI ([8]; 125 g/Ha): 80 | Herbicidal activity on a 0-100 scale, PANMI ([8]; 250 g/Ha): 100 | Herbicidal activity on a 0-100 scale, PANMI ([8]; 500 g/Ha): 100 | Herbicidal activity SIDSP (Sida spinosa (SIDSP); 15 g/Ha): 80 | Herbicidal activity SIDSP (Sida spinosa (SIDSP); 30 g/Ha): 80 | Herbicidal activity SIDSP (Sida spinosa (SIDSP); 60 g/Ha): 80 | Herbicidal activity SIDSP (Sida spinosa (SIDSP); 125 g/Ha): 90 | Herbicidal activity SIDSP (Sida spinosa (SIDSP); 250 g/Ha): 90 | Herbicidal activity SIDSP (Sida spinosa (SIDSP); 500 g/Ha): 90 | Herbicidal activity SINAR (Sinapis arvensis (SINAR); 15 g/Ha): 40 | Herbicidal activity SINAR (Sinapis arvensis (SINAR); 30 g/Ha): 80 | Herbicidal activity SINAR (Sinapis arvensis (SINAR); 60 g/Ha): 80 | Herbicidal activity SINAR (Sinapis arvensis (SINAR); 125 g/Ha): 90 | Herbicidal activity SINAR (Sinapis arvensis (SINAR); 250 g/Ha): 90 | Herbicidal activity SINAR (Sinapis arvensis (SINAR); 500 g/Ha): 90
